Assay results: the NIST ThermoML archive (doi:10.1016/j.tca.2006.04.016)

Experiment: xn = mol fraction of the nth substance listed
Conditions: 101 kPa, Liquid, Vibrating tube method, x1 = 1

O [water] + CN(C)CCCN
Conditions | mass density [kg/m3]
283.15 K | 999.7
323.15 K | 988.03
328.15 K | 985.69
333.15 K | 983.191
338.15 K | 980.55
343.15 K | 977.76
348.15 K | 974.84
353.15 K | 971.79
